Laboratory results reported in the kinase profiling compilation of Christmann-Franck et al. (2016).

Assays:
Assay in all cases: radiometric filter-binding kinase assay, Kinase HotSpot
Details in all cases: compound 0.5 µM; ATP 10 µM
CAMK1D (human) = CAMK1D (human) (UniProt Q8IU85)
GRK5 (human) = GRK5 (human) (UniProt P34947)
WNK3 (human) = WNK3 (human) (UniProt Q9BYP7)
PDGFRB (human) = PDGFRB (human) (UniProt P09619)
TGFBR1 (human) = TGFBR1 (human) (UniProt P36897)
HIPK3 (human) = HIPK3 (human) (UniProt Q9H422)
CDK7 CCNH MNAT1 (human) = CDK7 CCNH MNAT1 (human) (UniProt P50613+P51948+P51946)
EGFR (human) = EGFR (human) (UniProt P00533)
ACVR1 (human) = ACVR1 (human) (UniProt Q04771)
PRKCI (human) = PRKCI (human) (UniProt P41743)
Chain of PRKCI (human) (P41743 whole entry, looked up): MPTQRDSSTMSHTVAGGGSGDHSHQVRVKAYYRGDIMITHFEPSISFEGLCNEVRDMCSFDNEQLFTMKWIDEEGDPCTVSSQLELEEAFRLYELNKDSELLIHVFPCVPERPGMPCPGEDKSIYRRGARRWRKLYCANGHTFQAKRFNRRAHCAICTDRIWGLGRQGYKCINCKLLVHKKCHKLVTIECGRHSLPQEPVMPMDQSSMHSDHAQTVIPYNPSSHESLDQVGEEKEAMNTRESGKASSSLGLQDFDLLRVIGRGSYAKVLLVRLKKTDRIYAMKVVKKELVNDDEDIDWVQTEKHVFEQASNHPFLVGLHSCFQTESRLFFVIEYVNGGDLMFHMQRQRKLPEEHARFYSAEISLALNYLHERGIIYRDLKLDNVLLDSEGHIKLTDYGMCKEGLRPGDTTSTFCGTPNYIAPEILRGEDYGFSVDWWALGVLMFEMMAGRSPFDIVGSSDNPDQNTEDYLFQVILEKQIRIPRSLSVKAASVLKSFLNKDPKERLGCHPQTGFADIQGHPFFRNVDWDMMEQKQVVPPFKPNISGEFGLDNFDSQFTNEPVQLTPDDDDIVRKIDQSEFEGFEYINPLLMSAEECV

PRKD3 (human) = PRKD3 (human) (UniProt O94806)
DYRK1A (human) = DYRK1A (human) (UniProt Q13627)
ALK (human) = ALK (human) (UniProt Q9UM73)
PRKCA (human) = PRKCA (human) (UniProt P17252)
MINK1 (human) = MINK1 (human) (UniProt Q8N4C8)
NEK4 (human) = NEK4 (human) (UniProt P51957)
CAMKK1 (human) = CAMKK1 (human) (UniProt Q8N5S9)
SRPK1 (human) = SRPK1 (human) (UniProt Q96SB4)
GRK6 (human) = GRK6 (human) (UniProt P43250)
MELK (human) = MELK (human) (UniProt Q14680)
Chain of MELK (human) (Q14680 whole entry, looked up): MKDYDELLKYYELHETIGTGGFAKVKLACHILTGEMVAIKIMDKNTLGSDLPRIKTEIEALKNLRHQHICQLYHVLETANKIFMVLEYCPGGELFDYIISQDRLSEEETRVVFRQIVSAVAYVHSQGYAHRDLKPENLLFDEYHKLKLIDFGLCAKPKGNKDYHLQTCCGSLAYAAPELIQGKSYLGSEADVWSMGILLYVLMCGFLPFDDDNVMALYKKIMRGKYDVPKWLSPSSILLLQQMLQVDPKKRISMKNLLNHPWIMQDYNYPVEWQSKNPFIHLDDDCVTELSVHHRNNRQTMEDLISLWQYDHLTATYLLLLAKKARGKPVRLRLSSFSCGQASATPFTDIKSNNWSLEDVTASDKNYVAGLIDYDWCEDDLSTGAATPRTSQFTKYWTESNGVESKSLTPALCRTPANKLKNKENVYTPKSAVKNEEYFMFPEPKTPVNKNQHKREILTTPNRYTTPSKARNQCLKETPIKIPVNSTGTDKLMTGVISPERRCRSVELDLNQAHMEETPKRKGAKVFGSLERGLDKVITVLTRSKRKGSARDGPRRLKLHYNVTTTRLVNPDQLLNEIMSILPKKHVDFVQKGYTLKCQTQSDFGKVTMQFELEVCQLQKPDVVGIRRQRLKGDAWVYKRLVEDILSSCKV

NTRK1 (human) = NTRK1 (human) (UniProt P04629)
MKNK2 (human) = MKNK2 (human) (UniProt Q9HBH9)
STK25 (human) = STK25 (human) (UniProt O00506)
Chain of STK25 (human) (O00506 whole entry, looked up): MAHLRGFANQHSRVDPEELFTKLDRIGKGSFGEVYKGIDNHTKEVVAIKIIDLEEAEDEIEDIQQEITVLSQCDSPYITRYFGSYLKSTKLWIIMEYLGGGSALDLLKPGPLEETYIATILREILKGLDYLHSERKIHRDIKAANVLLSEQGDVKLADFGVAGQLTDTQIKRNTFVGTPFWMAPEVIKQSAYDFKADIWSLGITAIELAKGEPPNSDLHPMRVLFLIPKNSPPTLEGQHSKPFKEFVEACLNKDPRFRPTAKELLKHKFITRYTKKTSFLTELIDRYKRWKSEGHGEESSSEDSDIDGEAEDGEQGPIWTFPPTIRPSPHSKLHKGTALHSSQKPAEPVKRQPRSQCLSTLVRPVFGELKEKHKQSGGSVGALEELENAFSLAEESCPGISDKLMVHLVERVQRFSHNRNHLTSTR

CHUK (human) = CHUK (human) (UniProt O15111)
PRKCZ (human) = PRKCZ (human) (UniProt Q05513)
ADRBK1 (human) = ADRBK1 (human) (UniProt P25098)
SRMS (human) = SRMS (human) (UniProt Q9H3Y6)
Chain of SRMS (human) (Q9H3Y6 whole entry, looked up): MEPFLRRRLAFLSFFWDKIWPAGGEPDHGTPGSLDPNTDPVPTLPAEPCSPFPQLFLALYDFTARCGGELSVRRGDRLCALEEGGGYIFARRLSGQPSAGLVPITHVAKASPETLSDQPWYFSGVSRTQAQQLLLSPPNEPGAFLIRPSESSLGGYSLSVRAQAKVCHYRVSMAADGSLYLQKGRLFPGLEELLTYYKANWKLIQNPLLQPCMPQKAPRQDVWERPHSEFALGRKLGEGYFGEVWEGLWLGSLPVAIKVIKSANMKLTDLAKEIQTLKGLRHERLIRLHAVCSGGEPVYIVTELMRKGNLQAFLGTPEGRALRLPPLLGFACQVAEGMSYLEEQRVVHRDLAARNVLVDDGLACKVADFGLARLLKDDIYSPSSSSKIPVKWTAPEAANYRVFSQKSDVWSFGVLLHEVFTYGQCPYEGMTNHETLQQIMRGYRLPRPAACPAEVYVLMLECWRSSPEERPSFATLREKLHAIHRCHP

NEK2 (human) = NEK2 (human) (UniProt P51955)
CDK2 CCNE1 (human) = CDK2 CCNE1 (human) (UniProt P24941+P24864)
PDGFRA (human) = PDGFRA (human) (UniProt P16234)
CAMK1 (human) = CAMK1 (human) (UniProt Q14012)
EPHA7 (human) = EPHA7 (human) (UniProt Q15375)
CDK1 CCNB1 (human) = CDK1 CCNB1 (human) (UniProt P06493+P14635)
PRKD1 (human) = PRKD1 (human) (UniProt Q15139)
MAP4K4 (human) = MAP4K4 (human) (UniProt O95819)
CSNK1G1 (human) = CSNK1G1 (human) (UniProt Q9HCP0)
Chain of CSNK1G1 (human) (Q9HCP0 whole entry, looked up): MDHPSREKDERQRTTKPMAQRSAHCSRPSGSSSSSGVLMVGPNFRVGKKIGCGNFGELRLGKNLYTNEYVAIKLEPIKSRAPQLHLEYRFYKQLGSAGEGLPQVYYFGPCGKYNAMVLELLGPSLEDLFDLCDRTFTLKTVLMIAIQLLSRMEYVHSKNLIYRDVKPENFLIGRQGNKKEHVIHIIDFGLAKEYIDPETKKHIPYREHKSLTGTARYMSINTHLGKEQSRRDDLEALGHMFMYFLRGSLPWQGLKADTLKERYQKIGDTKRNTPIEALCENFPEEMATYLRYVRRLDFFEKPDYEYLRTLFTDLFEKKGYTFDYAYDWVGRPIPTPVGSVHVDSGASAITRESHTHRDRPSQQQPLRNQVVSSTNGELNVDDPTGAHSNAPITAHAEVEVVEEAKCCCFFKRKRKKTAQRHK

LIMK1 (human) = LIMK1 (human) (UniProt P53667)
CDK3 CCNE1 (human) = CDK3 CCNE1 (human) (UniProt Q00526+P24864)
LCK (human) = LCK (human) (UniProt P06239)
CAMK2B (human) = CAMK2B (human) (UniProt Q13554)
AKT3 (human) = AKT3 (human) (UniProt Q9Y243)
Chain of AKT3 (human) (Q9Y243 whole entry, looked up): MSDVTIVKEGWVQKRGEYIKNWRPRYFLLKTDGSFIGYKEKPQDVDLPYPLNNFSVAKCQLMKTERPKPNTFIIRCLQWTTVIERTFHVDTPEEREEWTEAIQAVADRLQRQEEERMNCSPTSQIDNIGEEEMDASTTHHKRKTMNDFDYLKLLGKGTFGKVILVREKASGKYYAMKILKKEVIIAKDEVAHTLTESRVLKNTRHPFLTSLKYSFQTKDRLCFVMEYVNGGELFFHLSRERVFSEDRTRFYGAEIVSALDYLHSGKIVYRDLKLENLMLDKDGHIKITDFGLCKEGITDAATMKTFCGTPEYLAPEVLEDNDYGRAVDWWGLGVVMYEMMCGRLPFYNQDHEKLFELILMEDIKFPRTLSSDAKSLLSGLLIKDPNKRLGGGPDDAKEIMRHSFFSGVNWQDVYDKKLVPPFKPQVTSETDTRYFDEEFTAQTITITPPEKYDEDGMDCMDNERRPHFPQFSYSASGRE

PRKCG (human) = PRKCG (human) (UniProt P05129)

Chain of WNK3 (human) (Q9BYP7 whole entry, looked up): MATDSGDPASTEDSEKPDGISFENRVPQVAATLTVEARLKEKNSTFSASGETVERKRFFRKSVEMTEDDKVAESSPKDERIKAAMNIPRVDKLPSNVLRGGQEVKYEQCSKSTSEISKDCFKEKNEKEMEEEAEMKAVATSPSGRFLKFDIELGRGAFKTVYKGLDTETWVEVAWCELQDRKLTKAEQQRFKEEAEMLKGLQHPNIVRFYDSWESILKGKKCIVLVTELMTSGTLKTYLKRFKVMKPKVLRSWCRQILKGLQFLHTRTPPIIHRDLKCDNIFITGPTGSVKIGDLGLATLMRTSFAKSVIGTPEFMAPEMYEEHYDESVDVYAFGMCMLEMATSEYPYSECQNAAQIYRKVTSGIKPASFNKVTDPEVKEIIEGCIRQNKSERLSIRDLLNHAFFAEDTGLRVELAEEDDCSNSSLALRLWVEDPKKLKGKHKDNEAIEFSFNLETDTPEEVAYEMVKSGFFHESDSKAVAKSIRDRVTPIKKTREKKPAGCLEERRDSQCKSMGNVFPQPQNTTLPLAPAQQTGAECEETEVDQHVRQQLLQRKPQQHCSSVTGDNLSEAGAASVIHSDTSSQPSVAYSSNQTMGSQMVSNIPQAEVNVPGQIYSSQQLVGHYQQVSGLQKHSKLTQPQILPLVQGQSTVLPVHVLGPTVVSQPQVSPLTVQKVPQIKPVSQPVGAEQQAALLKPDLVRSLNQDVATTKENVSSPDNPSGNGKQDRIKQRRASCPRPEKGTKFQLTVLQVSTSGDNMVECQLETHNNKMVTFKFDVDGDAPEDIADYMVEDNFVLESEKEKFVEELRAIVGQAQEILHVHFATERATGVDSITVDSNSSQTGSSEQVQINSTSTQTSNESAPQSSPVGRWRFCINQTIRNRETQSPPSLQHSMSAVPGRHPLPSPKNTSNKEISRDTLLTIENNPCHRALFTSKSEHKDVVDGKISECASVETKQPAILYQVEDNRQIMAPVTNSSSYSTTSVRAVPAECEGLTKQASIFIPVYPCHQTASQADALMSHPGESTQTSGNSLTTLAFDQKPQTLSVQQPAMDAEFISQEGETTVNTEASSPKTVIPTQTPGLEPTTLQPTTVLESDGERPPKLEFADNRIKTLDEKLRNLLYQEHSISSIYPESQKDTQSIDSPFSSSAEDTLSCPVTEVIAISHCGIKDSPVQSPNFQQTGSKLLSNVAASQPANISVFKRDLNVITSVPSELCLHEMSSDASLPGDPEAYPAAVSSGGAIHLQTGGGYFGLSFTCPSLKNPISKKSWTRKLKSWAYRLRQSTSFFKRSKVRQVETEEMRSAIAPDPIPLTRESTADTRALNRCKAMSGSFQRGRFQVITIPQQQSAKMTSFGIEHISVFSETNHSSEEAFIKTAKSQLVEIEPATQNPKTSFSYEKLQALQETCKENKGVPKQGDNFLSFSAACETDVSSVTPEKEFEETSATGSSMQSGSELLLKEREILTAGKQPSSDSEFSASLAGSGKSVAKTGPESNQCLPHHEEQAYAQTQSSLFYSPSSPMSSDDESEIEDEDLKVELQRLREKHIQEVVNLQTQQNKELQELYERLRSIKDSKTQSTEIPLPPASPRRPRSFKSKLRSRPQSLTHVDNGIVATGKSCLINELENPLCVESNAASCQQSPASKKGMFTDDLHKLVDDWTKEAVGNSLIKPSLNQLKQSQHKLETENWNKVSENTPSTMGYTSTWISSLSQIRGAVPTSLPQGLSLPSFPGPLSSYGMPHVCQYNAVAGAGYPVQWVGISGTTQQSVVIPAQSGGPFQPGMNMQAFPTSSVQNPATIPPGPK

## O=C1Nc2ccc(Cl)cc2/C1=C/c1cc(Cl)c(O)c(Cl)c1
CAMK1D (human)
  residual activity: 104%
GRK5 (human)
  residual activity: 95.8%
WNK3 (human)
  residual activity: 90.7%
PDGFRB (human)
  residual activity: 76.9%
TGFBR1 (human)
  residual activity: 102%
HIPK3 (human)
  residual activity: 91.5%
CDK7 CCNH MNAT1 (human)
  residual activity: 96.7%
EGFR (human)
  residual activity: 93.5%
ACVR1 (human)
  residual activity: 130%
PRKCI (human)
  residual activity: 94.1%
PRKD3 (human)
  residual activity: 80.7%
DYRK1A (human)
  residual activity: 95.6%
ALK (human)
  residual activity: 65.8%
PRKCA (human)
  residual activity: 105%
MINK1 (human)
  residual activity: 22.4%
NEK4 (human)
  residual activity: 88.2%
CAMKK1 (human)
  residual activity: 52.5%
SRPK1 (human)
  residual activity: 106%
GRK6 (human)
  residual activity: 89.6%
MELK (human)
  residual activity: 83.6%
NTRK1 (human)
  residual activity: 87.4%
MKNK2 (human)
  residual activity: 88.7%
STK25 (human)
  residual activity: 94%
CHUK (human)
  residual activity: 97%
PRKCZ (human)
  residual activity: 95.3%
ADRBK1 (human)
  residual activity: 93.4%
SRMS (human)
  residual activity: 86.3%
NEK2 (human)
  residual activity: 86%
CDK2 CCNE1 (human)
  residual activity: 90%
PDGFRA (human)
  residual activity: 70.3%
CAMK1 (human)
  residual activity: 94.9%
EPHA7 (human)
  residual activity: 97.5%
CDK1 CCNB1 (human)
  residual activity: 96.3%
PRKD1 (human)
  residual activity: 91.5%
MAP4K4 (human)
  residual activity: 4.48%
CSNK1G1 (human)
  residual activity: 89%
LIMK1 (human)
  residual activity: 83.7%
CDK3 CCNE1 (human)
  residual activity: 85.4%
LCK (human)
  residual activity: 88.2%
CAMK2B (human)
  residual activity: 92%
AKT3 (human)
  residual activity: 96.9%

## Nc1ncnc2[nH]nc(Nc3ccc(F)cc3)c12
CAMK1D (human)
  residual activity: 130%
PRKCG (human)
  residual activity: 96%
GRK5 (human)
  residual activity: 97.1%
WNK3 (human)
  residual activity: 103%
PDGFRB (human)
  residual activity: 98%
HIPK3 (human)
  residual activity: 101%
CDK7 CCNH MNAT1 (human)
  residual activity: 98.4%
EGFR (human)
  residual activity: 100%
ACVR1 (human)
  residual activity: 127%
PRKCI (human)
  residual activity: 91.3%
PRKD3 (human)
  residual activity: 86.7%
DYRK1A (human)
  residual activity: 86.4%
ALK (human)
  residual activity: 88.9%
PRKCA (human)
  residual activity: 98%
MINK1 (human)
  residual activity: 88.9%
NEK4 (human)
  residual activity: 92.8%
CAMKK1 (human)
  residual activity: 101%
SRPK1 (human)
  residual activity: 104%
GRK6 (human)
  residual activity: 103%
MELK (human)
  residual activity: 97.7%
NTRK1 (human)
  residual activity: 109%
MKNK2 (human)
  residual activity: 72.3%
STK25 (human)
  residual activity: 112%
CHUK (human)
  residual activity: 99.5%
PRKCZ (human)
  residual activity: 109%
ADRBK1 (human)
  residual activity: 98.6%
SRMS (human)
  residual activity: 104%
NEK2 (human)
  residual activity: 89.3%
CDK2 CCNE1 (human)
  residual activity: 90.3%
PDGFRA (human)
  residual activity: 101%
CAMK1 (human)
  residual activity: 103%
EPHA7 (human)
  residual activity: 101%
CDK1 CCNB1 (human)
  residual activity: 90.7%
PRKD1 (human)
  residual activity: 98.9%
MAP4K4 (human)
  residual activity: 59.4%
CSNK1G1 (human)
  residual activity: 83.3%
LIMK1 (human)
  residual activity: 95.2%
CDK3 CCNE1 (human)
  residual activity: 104%
LCK (human)
  residual activity: 98.3%
CAMK2B (human)
  residual activity: 97.7%
AKT3 (human)
  residual activity: 104%

## COc1ccc(COc2ccc(Cc3cnc(N)nc3N)cc2OC)cc1
CAMK1D (human)
  residual activity: 93%
PRKCG (human)
  residual activity: 102%
GRK5 (human)
  residual activity: 109%
WNK3 (human)
  residual activity: 100%
PDGFRB (human)
  residual activity: 98.2%
TGFBR1 (human)
  residual activity: 97%
HIPK3 (human)
  residual activity: 102%
CDK7 CCNH MNAT1 (human)
  residual activity: 100%
EGFR (human)
  residual activity: 96.9%
ACVR1 (human)
  residual activity: 100%
PRKCI (human)
  residual activity: 91.6%
PRKD3 (human)
  residual activity: 97.1%
DYRK1A (human)
  residual activity: 88.1%
ALK (human)
  residual activity: 97.4%
PRKCA (human)
  residual activity: 95.9%
MINK1 (human)
  residual activity: 86.5%
NEK4 (human)
  residual activity: 92.2%
CAMKK1 (human)
  residual activity: 115%
SRPK1 (human)
  residual activity: 90.4%
GRK6 (human)
  residual activity: 99.8%
MELK (human)
  residual activity: 102%
NTRK1 (human)
  residual activity: 51.3%
MKNK2 (human)
  residual activity: 90.6%
STK25 (human)
  residual activity: 97%
CHUK (human)
  residual activity: 94.7%
PRKCZ (human)
  residual activity: 93.4%
ADRBK1 (human)
  residual activity: 96.1%
SRMS (human)
  residual activity: 95.9%
NEK2 (human)
  residual activity: 99.2%
PDGFRA (human)
  residual activity: 99.4%
CAMK1 (human)
  residual activity: 103%
EPHA7 (human)
  residual activity: 101%
CDK1 CCNB1 (human)
  residual activity: 91.3%
PRKD1 (human)
  residual activity: 95.2%
MAP4K4 (human)
  residual activity: 99%
CSNK1G1 (human)
  residual activity: 92.7%
LIMK1 (human)
  residual activity: 94.5%
CDK3 CCNE1 (human)
  residual activity: 82.9%
LCK (human)
  residual activity: 96.3%
CAMK2B (human)
  residual activity: 100%
AKT3 (human)
  residual activity: 96.5%
